# Reference: patent US20180353445A1, “METHODS AND COMPOSITIONS RELATING TO PROTEASOME INHIBITOR RESISTANCE” (Whitehead Institute for Biomedical Research, priority 2017, published 2018)
# Residues, ends and D or L forms follow the SMILES beside them. *: point of attachment. Cbz = O=C(OCc1ccccc1)*
# Experiments:
# T47D cells [1] = test: Cell viability, T47D cells with doxycycline-inducible PSMD2 shRNA (KD) vs control; type: cell-based, human; conditions: doxycycline-regulated PSMD2 shRNA
# Experimental: FIGS. 37A-37E: Subunit suppression results in highly specific drug sensitivity alteration. Schematic representation of the drug screen setup. (FIG. 37A) 147D cells harboring a doxycycline-inducible PSMD2 shRNA were grown in the presence or absence of doxycycline for 48 hr. Cells were then collected, washed, and plated in the absence of doxycycline for 24 hr prior to exposure different compounds. Relative cell numbers were measured 3 days later. […] (FIGS. 37C-37E) The relative viability of the PSMD2 knockdown (KD) versus the control was calculated for replica experiments and the log2 of the ratio is plotted for 349 compounds from the Selleck anti-cancer L3000 drug library that were tested in 4 concentrations (FIG. 37C), the Selleck natural product library (NPC) comprising 502 compounds in 5 doses (FIG. 37D), and the NIH bioactive compound library that includes 731 compounds in 4 doses (FIG. 37E). Specific compounds are annotated.
# The effect of transient PSMD2 reduction on growth of T47D cells in the presence of different proteasome inhibitors (bortezomib, MLN9708, carfilzomib, oprozornib) was tested. T47D cells harboring a doxycycline inducible control shRNA (GFP) or a doxycycline-inducible PSMD2 shRNA (TurhoRFP) were incubated with doxycycline for 3 days. Cells were then split and grown in the absence of Dox and proteasome inhibitors were then added at various concentrations. Cells were maintained in culture and then counted.
# For the generation of the T47D Tet-inducible PSMD2 knockdown cell line- the TRIPZ vector with an inducible shRNA targeting PSMD2 was purchased from Dhannacon (clone V3THS_403760). It was introduced to the T47D cells according to manufactures protocol and cells were selected with puromycin 1 μg/ml for one week. The cells were exposed to doxycycline for 24 hours and cells were FACS sorted for the top 10% of most RFP expressing cells (highest expression of shRNA). The cells were further cultured in the absence of doxycycline and PSMD2 knockdown was induced as specified in the relevant Examples. The TRIPZ control GFP vector was created by removing the turboRFP from the TRIPZ control vector by digestion with Agel and ClaI and replacing it with GFP amplified with primers flanking with Agel and Clal restriction sites.
# Cell Viability Assay—Relative cell growth and survival were measured in 96-well microplate format in the shRNA experiments and in 384 well format in the drug toxicity assays, by using the fluorescent detection of resazurin dye reduction as an endpoint (544 nm excitation and 590 run emission). 2,500 cells in 96 wells format or 1,000 cells in 384 well format were plated 24 hours before compound exposure (for 72 hours or indicated time). Each analysis was performed at least with three replicas.
# Saccharomyces cerevisiae = test: Yeast MG132 sensitivity assay, proteasome subunit DAmP strains; type: cell-based; conditions: five of twelve strains, 50 μM
# Experimental: FIG. 7: Reducing the levels of 19S subunits is an evolutionarily conserved mechanism to acquire resistance to proteasome inhibition.
# As the 19S regulatory complex components are essential for viability in yeast, we utilized a library of hypomorphic (DAmP) alleles for essential yeast genes. In this library, the expression of individual mRNA. species is reduced from two to ten-fold by replacing the mRNA's 3′ untranslated region (Breslow et al., 2008).
# Yeast cells were grown over night in media containing L-proline as nitrogen source instead of ammonium sulfate. The overnight cultures were diluted into OD 0.1 and were grown in the L-proline culture with 0.003% SDS with or without 50 μM MG-132. OD was measured over the period of 48 hours.
# cancer cell lines (GDSC) = test: Genomics of Drug Sensitivity in Cancer (GDSC) data analysis, IC50 of bortezomib and MG132 vs 19S expression / sigma score; type: cell-based, human; conditions: GDSC database
# Excerpt: In some aspects, whether a cancer cell is considered resistant or sensitive to a particular agent may be determined by comparing the IC50 of the agent for the cancer cell with the IC50 of the agent as measured for each cell line in a panel of diverse cancer cell lines. Cancer cells for which the agent has an IC50 in the 10th percentile of IC50 values determined for the agent on a diverse panel of cancer cell lines may be considered sensitive, while cancer cells for which the agent has an IC50 in the 90th percentile of IC50 values determined for the agent on a diverse panel of cancer cell lines may be considered resistant to the agent.
# We asked if this might correlate with changes in 19S subunit expression. We analyzed the Genomics of Drug Sensitivity in Cancer (GDSC) database, a public resource of transcriptional data and drug responsiveness collected from a spectrum of human cancer cell lines with diverse tissue origins and diverse oncogenic lesions (Garnett et al., 2012). […]
# Further details of methods used in GDSC dataset analysis: Gene expression and drug sensitivity data was downloaded from the World Wide Web at subdomain cancerrxgene.org. […] For each proteasomal subunit gene, a-score was calculated for each cell line. […] P-values were calculated by t-test, comparing the logEC50s between the 3 sigma and not 3 sigma.
# cancer cells = test: Cell viability, elesclomol and elesclomol analogs (cell titer-glo); type: cell-based; conditions: substitution of oxygen for sulfur group(s)
# Excerpt: In addition to the intrinsic sensitivity of certain cancer cells to elesclomol, as our drug screen indicated, the sensitivity of cancer cells to elesclomol can be further enhanced by forcing them into a Hi-OXPHOS state.
# We examined several elesclomol analogs (FIG. 57B) to determine the structural features that are important for mediating its cytotoxicity. […] Substitution of oxygen for even one of the sulfur groups (compound-5) reduced the activity of elesclomol by 300 fold. The loss of activity was even more pronounced (>>300 fold) when both sulfurs were substituted (compound-6) (FIGS. 51C-51D, FIG. 57C). Various other modifications to the elesclomol scaffold were tolerated, as long as the core sulfur geometry remained intact.
# (§1) Cell viability—where indicated relative cell number following different drug treatment was conducted by plating cells at 1000 cells/well in 384 well plates. Indicated concentrations of compounds were added 24 hour after plating at least in triplicate for each condition. Viability was measured 72 hours after drug addition using cell titer-glo (Promega) according to manufactures protocol. […]
# MCF7 and HEK293 cells = test: Cell viability with glucose or galactose as the carbon source; type: cell-based, human; conditions: 10 mM glucose or 10 mM galactose
# Experimental: Cells were treated with increasing concentrations of elesclomol in the presence of either Glucose or Galactose as the carbon source (FIG. 40A). The presence of Galactose will induce a mitochondrial dependent metabolism (FIGS. 40B-40C, Gohil et al., Nature Biotechnology 28, 249-255 (2010)).
# The sensitivity of cells to different chemical isoforms of elesclomol was also assessed. […] Removing even one substantially impairs the ability of the molecule to induce toxicity (FIG. 41B).
# Cell culture methods—147D, Lo19S T47D, K562 and 293T-HS cells were cultured in RPMI-1640 medium supplemented with 10% fetal bovine serum; HEK293, HEK293T and MCF-7 cells were cultured in Dulbecco's modified Eagle's medium supplemented with 10% fetal bovine serum. For the glucose, galactose experiments media lacking glucose was supplemented with dialyzed serum and either 10 mM Glucose or 10 mM galactose.
# as §1
# T47D cells [2] = test: The glucose/galactose drug screen; type: cell-based, human; conditions: 10 mM Glucose or Galactose, Selleck anti cancer and natural product libraries
molecule,measurement,setting,value
"CC(C)C[C@@H](C=O)NC(=O)[C@H](CC(C)C)NC(=O)[C@H](CC(C)C)NC(=O)OCc1ccccc1 [MG132, N-(benzyloxycathonyl)leucinylieucinylieucinal] (Cbz-Leu-Leu-Leu-aldehyde)",resistance after transient reduction of PSMD2,T47D cells [1],significantly increased resistance
same,resistance of 19S DAmP yeast strains to proteasome inhibition,Saccharomyces cerevisiae,significantly increased resistance
same,average IC50 value in 3-Sigma cell lines vs all other lines,cancer cell lines (GDSC),considerably higher
CN(NC(=O)CC(=O)NN(C)C(=S)c1ccccc1)C(=O)c1ccccc1 [compound-5],reduction of activity relative to elesclomol,cancer cells,300 fold
antimycin A,"sensitivity of cells in galactose (mitochondrial metabolism, Hi-OXPHOS) versus glucose (glycolytic)",MCF7 and HEK293 cells,This phenomenon is observed
same,relative viability change of cells grown in glucose versus galactose,T47D cells [2],increased sensitivity
